Data: PubChem BioAssay (NCI)
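Interpolation was linear, between the two tested concentrations surrounding the appropriate level; five concentrations were tested over 48 hours in 96-well plates. Abbreviation: GI50, concentration required for 50% inhibition of growth. TGI: total growth inhibition.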

Key:
Experiment in all cases: growth of human tumour cells (NCI), 48 h
[1] = system: 786-0 renal
[2] = system: A498 renal
[3] = system: A549 NSCLC
[4] = system: ACHN renal
[5] = system: BT-549 breast
[6] = system: CAKI-1 renal
[7] = system: CCRF-CEM leukemia
[8] = system: COLO 205 colon
[9] = system: DU-145 prostate
[10] = system: EKVX NSCLC
[11] = system: HCC-2998 colon
[12] = system: HCT-116 colon
[13] = system: HCT-15 colon
[14] = system: HL-60(TB) leukemia
[15] = system: HOP-62 NSCLC
[16] = system: HOP-92 NSCLC
[17] = system: HS 578T breast
[18] = system: HT29 colon
[19] = system: IGROV1 ovarian
[20] = system: K-562 leukemia
[21] = system: KM12 colon
[22] = system: LOX IMVI melanoma
[23] = system: M14 melanoma
[24] = system: MALME-3M melanoma
[25] = system: MCF7 breast
[26] = system: MDA-MB-435
[27] = system: MDA-MB-468 breast
[28] = system: MOLT-4 leukemia
[29] = system: NCI-H226 lung
[30] = system: NCI-H23 lung
[31] = system: NCI-H460 lung
[32] = system: NCI-H522 lung
[33] = system: NCI/ADR-RES ovarian
[34] = system: OVCAR-3 ovarian
[35] = system: OVCAR-4 ovarian
[36] = system: OVCAR-5 ovarian
[37] = system: OVCAR-8 ovarian
[38] = system: PC-3 prostate
[39] = system: RPMI-8226 leukemia
[40] = system: RXF 393 renal
[41] = system: SF-268 CNS
[42] = system: SF-295 CNS
[43] = system: SF-539 CNS
[44] = system: SK-MEL-28 melanoma
[45] = system: SK-MEL-5 melanoma
[46] = system: SK-OV-3 ovarian
[47] = system: SN12C renal
[48] = system: SNB-19 CNS
[49] = system: SR leukemia
[50] = system: SW-620 colon
[51] = system: T-47D breast
[52] = system: TK-10 renal
[53] = system: U251 CNS
[54] = system: UACC-257 melanoma
[55] = system: UACC-62 melanoma
[56] = system: MDA-MB-231 breast
[57] = system: SK-MEL-2 melanoma
[58] = system: UO-31 renal

## NCCCCn1c(SCCc2c[nH]c3ccccc23)nnc1-c1ccc2ccccc2n1
[1]
  GI50: 5.9 µM
  TGI: 10.9 µM
[2]
  GI50: 6.06 µM
  TGI: 11.2 µM
[3]
  GI50: 5.1 µM
  TGI: 9.87 µM
[4]
  GI50: 5.42 µM
  TGI: 10.3 µM
[5]
  GI50: 5.67 µM
  TGI: 10.7 µM
[6]
  GI50: 5.74 µM
  TGI: 11.9 µM
[7]
  GI50: 7.21 µM
  TGI: 20.3 µM
[8]
  GI50: 4.54 µM
  TGI: 9.3 µM
[9]
  GI50: 6.51 µM
  TGI: 12.2 µM
[10]
  GI50: 5.32 µM
  TGI: 10.6 µM
[11]
  GI50: 6.01 µM
  TGI: 10.9 µM
[12]
  GI50: 4.74 µM
  TGI: 9.31 µM
[13]
  GI50: 6.26 µM
  TGI: 11.5 µM
[14]
  GI50: 4.99 µM
  TGI: 11.4 µM
[15]
  GI50: 5.35 µM
  TGI: 10.5 µM
[16]
  GI50: 4.59 µM
  TGI: 10.5 µM
[17]
  GI50: 5.6 µM
  TGI: 14.6 µM
[18]
  GI50: 5.28 µM
  TGI: 10.4 µM
[19]
  GI50: 5.84 µM
  TGI: 11.1 µM
[20]
  GI50: 5.58 µM
  TGI: 13.2 µM
[21]
  GI50: 6.54 µM
  TGI: 12.3 µM
[22]
  GI50: 5.28 µM
  TGI: 10 µM
[23]
  GI50: 5.48 µM
  TGI: 10.4 µM
[24]
  GI50: 5.35 µM
  TGI: 10.3 µM
[25]
  GI50: 5.38 µM
  TGI: 10.4 µM
[26]
  GI50: 6.27 µM
  TGI: 11.8 µM
[27]
  GI50: 4.94 µM
  TGI: 9.58 µM
[28]
  GI50: 5.47 µM
  TGI: 13.1 µM
[29]
  GI50: 5.29 µM
  TGI: 10.8 µM
[30]
  GI50: 5.57 µM
  TGI: 10.5 µM
[31]
  GI50: 6.17 µM
  TGI: 11.7 µM
[32]
  GI50: 5.35 µM
  TGI: 10.4 µM
[33]
  GI50: 6.29 µM
  TGI: 13.4 µM
[34]
  GI50: 5.16 µM
  TGI: 10.2 µM
[35]
  GI50: 5.75 µM
  TGI: 12 µM
[36]
  GI50: 5.66 µM
  TGI: 10.8 µM
[37]
  GI50: 5.63 µM
  TGI: 10.8 µM
[38]
  GI50: 5.35 µM
  TGI: 11.6 µM
[39]
  GI50: 5.41 µM
  TGI: 13.9 µM
[40]
  GI50: 4.8 µM
  TGI: 9.4 µM
[41]
  GI50: 5.69 µM
  TGI: 12.1 µM
[42]
  GI50: 5.65 µM
  TGI: 10.7 µM
[43]
  GI50: 5.85 µM
  TGI: 10.6 µM
[44]
  GI50: 5.94 µM
  TGI: 10.8 µM
[45]
  GI50: 5.84 µM
  TGI: 10.6 µM
[46]
  GI50: 5.69 µM
  TGI: 11.2 µM
[47]
  GI50: 5.6 µM
  TGI: 10.5 µM
[48]
  GI50: 6.3 µM
  TGI: 12.8 µM
[49]
  GI50: 5.88 µM
  TGI: 12.7 µM
[50]
  GI50: 5.51 µM
  TGI: 11.1 µM
[51]
  GI50: 6.08 µM
  TGI: 14.6 µM
[52]
  GI50: 5.91 µM
  TGI: 10.9 µM
[53]
  GI50: 5.36 µM
  TGI: 10.2 µM
[54]
  GI50: 5.78 µM
  TGI: 11 µM
[55]
  GI50: 5.46 µM
  TGI: 10.2 µM

## COc1cc(/C=C/C(=O)c2cnn(-c3cc(=O)[nH]c4ccc(Cl)cc34)c2C)cc(OC)c1OC
[1]
  GI50: 4.09 µM
  TGI: 21.1 µM
[2]
  GI50: 34.2 µM
  TGI: 87.4 µM
[3]
  GI50: 3.09 µM
  TGI: > 100 µM
[4]
  GI50: 1.76 µM
  TGI: 3.68 µM
[5]
  GI50: 2.76 µM
  TGI: 9.98 µM
[6]
  GI50: 4.17 µM
  TGI: 22.5 µM
[7]
  GI50: 2.42 µM
  TGI: > 100 µM
[8]
  GI50: 3.53 µM
  TGI: 14 µM
[9]
  GI50: 3.3 µM
  TGI: > 100 µM
[10]
  GI50: 2.96 µM
  TGI: 14.1 µM
[11]
  GI50: 2.78 µM
  TGI: 8.21 µM
[12]
  GI50: 3.58 µM
  TGI: 17.5 µM
[13]
  GI50: 1.93 µM
  TGI: 5.01 µM
[15]
  GI50: 3.57 µM
  TGI: 25.8 µM
[16]
  GI50: 7.31 µM
  TGI: 99.8 µM
[17]
  GI50: 3.31 µM
  TGI: > 100 µM
[18]
  GI50: 2.5 µM
  TGI: 6.58 µM
[19]
  GI50: 2.54 µM
  TGI: 7.18 µM
[20]
  GI50: 2.68 µM
  TGI: > 100 µM
[21]
  GI50: 3.37 µM
  TGI: 15 µM
[23]
  GI50: 3.2 µM
  TGI: 19.8 µM
[24]
  GI50: 5.1 µM
  TGI: 27.2 µM
[25]
  GI50: 2.48 µM
  TGI: 10.2 µM
[56]
  GI50: 3.3 µM
  TGI: 14.9 µM
[26]
  GI50: 2.6 µM
  TGI: 8.12 µM
[27]
  GI50: 1.8 µM
  TGI: 4.41 µM
[29]
  GI50: 2.89 µM
  TGI: 9.13 µM
[30]
  GI50: 2.21 µM
  TGI: 5.9 µM
[31]
  GI50: 1.88 µM
  TGI: 4.32 µM
[32]
  GI50: 2.66 µM
  TGI: 8.38 µM
[34]
  GI50: 3.06 µM
  TGI: 9.9 µM
[35]
  GI50: 3.58 µM
  TGI: > 100 µM
[36]
  GI50: 3.32 µM
  TGI: 13.4 µM
[37]
  GI50: 2.06 µM
  TGI: 4.95 µM
[38]
  GI50: 6.28 µM
  TGI: > 100 µM
[39]
  GI50: 2.42 µM
  TGI: > 100 µM
[40]
  GI50: 2.08 µM
  TGI: 4.95 µM
[41]
  GI50: 3.42 µM
  TGI: > 100 µM
[42]
  GI50: 3.16 µM
  TGI: 11.5 µM
[43]
  GI50: 2.08 µM
  TGI: 4.62 µM
[57]
  GI50: 2.98 µM
  TGI: 11.8 µM
[44]
  GI50: 3.36 µM
  TGI: 13.3 µM
[45]
  GI50: 3.22 µM
  TGI: 12 µM
[46]
  GI50: 4.68 µM
  TGI: > 100 µM
[47]
  GI50: 2.64 µM
  TGI: 9.24 µM
[48]
  GI50: 3.36 µM
  TGI: 14.4 µM
[49]
  GI50: 2.02 µM
  TGI: > 100 µM
[50]
  GI50: 2.97 µM
  TGI: 11.5 µM
[51]
  GI50: 3.08 µM
  TGI: > 100 µM
[52]
  GI50: 3.26 µM
  TGI: > 100 µM
[53]
  GI50: 2.83 µM
  TGI: > 100 µM
[54]
  GI50: 7.19 µM
  TGI: 64.4 µM
[55]
  GI50: 3.36 µM
  TGI: 15 µM
[58]
  GI50: 3.26 µM
  TGI: 14.5 µM
